Values of other authors in US9456982B2, “Solid formulations of niacin to counteract cold extremities” (BE-WARM LLC, priority 2014, dated 2016).

Settings: therapeutic niacin doses; sometimes longer

Compound: O=C(O)c1cccnc1 [niacin, pyridine-3-carboxylic acid]
- duration of SVFS flush: 15 to 30 min
